# Reference: patent US20170232083A1, “METHODS OF DIAGNOSIS AND TREATMENT OF CELIAC DISEASE IN CHILDREN” (priority 2014, published 2017)
# Tested on: PBMC (polyclonal gluten-specific T cells) of paediatric and adult CD patients
# Assay: IFN-γ ELISpot of PBMC after 3 day oral wheat challenge (SFU, % of maximal peptide response, dominance scores, EC50; Examples 5-6)
# Assay type: cell-based, human
# Details: for Cross-reactive T cell response: following wheat challenge; for IFN-γ ELISpot response: after oral wheat challenge
# [1] = patient A, 11-17 yrs, cut-off 10 SFU
# [2] = patient E, H, 11-17 yrs, cut-off 10 SFU
# [3] = patient F, 11-17 yrs, cut-off 10 SFU
# [4] = patient G, 11-17 yrs, cut-off 10 SFU
# [5] = patient H (HLA-DQ2.5 homozygote), 3-5yrs, cut-off 10 SFU
# [6] = patient H, 11-17 yrs, cut-off 10 SFU
# [7] = patient ID not given, 11-17 yrs, cut-off 10 SFU
# [8] = patient N, 3-5yrs, cut-off 10 SFU
# [9] = patient P, 11-17 yrs, cut-off 21.6 SFU
# [10] = patient Q, 11-17 yrs, cut-off 10 SFU
# [11] = patient U, H, 11-17 yrs, cut-off 10 SFU
# [12] = patient V, 6-10 yrs, cut-off 10 SFU
# [13] = patient Y, 6-10 yrs, cut-off 10 SFU
# [14] = patient eleven, 6-10 yrs, cut-off 10 SFU
# [15] = patient four, 3-5yrs, cut-off 10 SFU
# [16] = patient seven, 6-10 yrs, cut-off 10.5 SFU
# [17] = patient ten, 3-5yrs, cut-off 10 SFU
# [18] = patient three, 6-10 yrs, cut-off 10.5 SFU
# [19] = patient twelve, 11-17 yrs, cut-off 10 SFU
# [20] = patient two, 3-5yrs, cut-off 10 SFU
# [21] = patient ID not given, max peptide 95 SFU
# [22] = patient five, max peptide 48 SFU
sequence,measurement,setting,value
PEQPQPFPEQPVPQQP,Cross-reactive T cell response,"subject A, 11-17yrs",3 SFU
same,Cross-reactive T cell response,"subject D, 11-17yrs",3 SFU
same,Cross-reactive T cell response,"subject E, 11-17yrs",4 SFU
same,Cross-reactive T cell response,"subject F, 11-17yrs",6 SFU
same,Cross-reactive T cell response,"subject G, 11-17yrs",1 SFU
same,Cross-reactive T cell response,subject H,0 SFU
same,Cross-reactive T cell response,subject I (3-5yrs/6-10yrs part),0 SFU
same,Cross-reactive T cell response,subject J (3-5yrs/6-10yrs part),7 SFU
same,Cross-reactive T cell response,subject K (3-5yrs/6-10yrs part),4 SFU
same,Cross-reactive T cell response,"subject P, 11-17yrs",8 SFU
same,Cross-reactive T cell response,"subject Q, 11-17yrs",6 SFU
same,Cross-reactive T cell response,"subject T, 11-17yrs",5 SFU
same,Cross-reactive T cell response,"subject U, 11-17yrs",1 SFU
same,Cross-reactive T cell response,subject V (3-5yrs/6-10yrs part),3 SFU
same,Cross-reactive T cell response,subject W (3-5yrs/6-10yrs part),4 SFU
same,Cross-reactive T cell response,subject Y (3-5yrs/6-10yrs part),2 SFU
same,Cross-reactive T cell response,subject five (3-5yrs/6-10yrs part),0 SFU
same,Cross-reactive T cell response,"subject nine, 11-17yrs",0 SFU
same,Cross-reactive T cell response,subject seven (3-5yrs/6-10yrs part),4 SFU
same,Cross-reactive T cell response,subject six (3-5yrs/6-10yrs part),2 SFU
same,Significant response as a percentage of maximal peptide SFU,subject ten,+ (>70% = +)
same,Cross-reactive T cell response,subject ten (3-5yrs/6-10yrs part),11 SFU
same,Cross-reactive T cell response,subject two (3-5yrs/6-10yrs part),3 SFU
PEQTFPEQPQLPF,IFN-γ ELISpot response,[1],3 SFU
same,IFN-γ ELISpot response,[2],19 SFU
same,Significant response as percentage of maximal peptide SFU,"patient E, max peptide 224 SFU",(6-10% = ^)
same,IFN-γ ELISpot response,[3],1 SFU
same,IFN-γ ELISpot response,[4],15 SFU
same,Significant response as percentage of maximal peptide SFU,"patient G, max peptide 15 SFU",+ (>70% = +)
same,IFN-γ ELISpot response,[5],2 SFU
same,IFN-γ ELISpot response,[6],9 SFU
same,IFN-γ ELISpot response,[7],0 SFU
same,Significant response as percentage of maximal peptide SFU,"patient J, max peptide 196 SFU",+ (>70% = +)
same,Significant response as percentage of maximal peptide SFU,"patient K, max peptide 53 SFU",′′′ (41-70% = ′′′)
same,IFN-γ ELISpot response,[8],1 SFU
same,IFN-γ ELISpot response,[9],4 SFU
same,IFN-γ ELISpot response,[10],2 SFU
same,IFN-γ ELISpot response,[11],1 SFU
same,IFN-γ ELISpot response,[12],4 SFU
same,IFN-γ ELISpot response,[13],1 SFU
same,IFN-γ ELISpot response,[14],0 SFU
same,IFN-γ ELISpot response,[15],0 SFU
same,IFN-γ ELISpot response,[16],4 SFU
same,IFN-γ ELISpot response,[17],4 SFU
same,IFN-γ ELISpot response,[18],179 SFU
same,IFN-γ ELISpot response,[19],0 SFU
same,IFN-γ ELISpot response,[20],1 SFU
PFPEQPEQPFPQP,IFN-γ ELISpot response,[1],4 SFU
same,Significant response as percentage of maximal peptide SFU,"patient D, max peptide 30.5 SFU",′′ (21-40% = ′′)
same,IFN-γ ELISpot response,[2],30 SFU
same,Significant response as percentage of maximal peptide SFU,"patient E, max peptide 224 SFU",′ (11-20% = ′)
same,IFN-γ ELISpot response,[3],32 SFU
same,Significant response as percentage of maximal peptide SFU,"patient F, max peptide 178 SFU",′ (11-20% = ′)
same,IFN-γ ELISpot response,[4],5 SFU
same,IFN-γ ELISpot response,[5],19 SFU
same,IFN-γ ELISpot response,[6],17 SFU
same,Significant response as percentage of maximal peptide SFU,"patient H, max peptide 17 SFU",+ (>70% = +)
same,IFN-γ ELISpot response,[7],24 SFU
same,Significant response as percentage of maximal peptide SFU,[21],′′ (21-40% = ′′)
same,Significant response as percentage of maximal peptide SFU,"patient J, max peptide 196 SFU",′′ (21-40% = ′′)
same,Significant response as percentage of maximal peptide SFU,"patient K, max peptide 53 SFU",′′ (21-40% = ′′)
same,Significant response as percentage of maximal peptide SFU,"patient M, max peptide 48 SFU",′′ (21-40% = ′′)
same,IFN-γ ELISpot response,[8],2 SFU
same,IFN-γ ELISpot response,[9],8 SFU
same,IFN-γ ELISpot response,[10],35 SFU
same,Significant response as percentage of maximal peptide SFU,"patient Q, max peptide 97 SFU",′′ (21-40% = ′′)
same,IFN-γ ELISpot response,[11],13 SFU
same,Significant response as percentage of maximal peptide SFU,"patient U, max peptide 81 SFU",′ (11-20% = ′)
same,IFN-γ ELISpot response,[12],16 SFU
same,Significant response as percentage of maximal peptide SFU,"patient V, max peptide 35 SFU",′′′ (41-70% = ′′′)
same,IFN-γ ELISpot response,[13],4 SFU
same,IFN-γ ELISpot response,[14],4 SFU
same,Significant response as percentage of maximal peptide SFU,[22],′′ (21-40% = ′′)
same,IFN-γ ELISpot response,[15],6 SFU
same,IFN-γ ELISpot response,[16],9 SFU
same,IFN-γ ELISpot response,[17],5 SFU
same,IFN-γ ELISpot response,[18],51 SFU
same,IFN-γ ELISpot response,[19],11 SFU
same,IFN-γ ELISpot response,[20],24 SFU
same,Significant response as percentage of maximal peptide SFU,"patient two, max peptide 60 SFU",′′ (21-40% = ′′)
PFPEQPEQPYPQQ,IFN-γ ELISpot response,[1],0 SFU
same,IFN-γ ELISpot response,[2],14 SFU
same,Significant response as percentage of maximal peptide SFU,"patient E, max peptide 224 SFU",(6-10% = ^)
same,IFN-γ ELISpot response,[3],8 SFU
same,IFN-γ ELISpot response,[4],1 SFU
same,IFN-γ ELISpot response,[5],11 SFU
same,IFN-γ ELISpot response,[6],1 SFU
same,IFN-γ ELISpot response,[7],14 SFU
same,Significant response as percentage of maximal peptide SFU,[21],′ (11-20% = ′)
same,Significant response as percentage of maximal peptide SFU,"patient II, max peptide 15 SFU",+ (>70% = +)
same,Significant response as percentage of maximal peptide SFU,"patient M, max peptide 48 SFU",′ (11-20% = ′)
same,IFN-γ ELISpot response,[8],1 SFU
same,IFN-γ ELISpot response,[9],15 SFU
same,IFN-γ ELISpot response,[10],19 SFU
same,Significant response as percentage of maximal peptide SFU,"patient Q, max peptide 97 SFU",′ (11-20% = ′)
same,IFN-γ ELISpot response,[11],2 SFU
same,IFN-γ ELISpot response,[12],7 SFU
same,IFN-γ ELISpot response,[13],5 SFU
same,IFN-γ ELISpot response,[14],3 SFU
same,Significant response as percentage of maximal peptide SFU,[22],′′ (21-40% = ′′)
same,IFN-γ ELISpot response,[15],4 SFU
same,IFN-γ ELISpot response,[16],3 SFU
same,IFN-γ ELISpot response,[17],5 SFU
same,IFN-γ ELISpot response,[18],9 SFU
same,IFN-γ ELISpot response,[19],2 SFU
same,IFN-γ ELISpot response,[20],6 SFU
